Here are results for one molecule from US20240294895A1, “ENZYMATIC COMPOSITIONS FOR CARBOHYDRATE ANTIGEN CLEAVAGE ON DONOR ORGANS, METHODS AND USES ASSOCIATED THEREWITH” (THE UNIVERSITY OF BRITISH COLUMBIA, priority 2018, published 2024).

What all share (type): biochemical
Assay [1] has as its system Flavonifractor plautii GalNAcDeacetylase FpGalNAcDeAc_D1min, mutant C99A. In words: Cleavage of A antigen Type2tetra-MU by FpGalNAcDeAc_D1min C99A. The note with it: pH 7.4, 37° C. The method, then:
(§1) kcat/KM parameter were determined for A antigen subtype 1/2/4tetra-MU at pH 7.4 at 37° C. Reactions (total volume of 100 μL) were performed in black 96-plate wells and as coupled assays in 100 mM NaH2PO4 (pH 7.4) with 12 nM FpGalNAcDeacetylase 0.1 mg/mL SpHex, BgaC (BgaA for subtype II), AfcA, at varying concentrations of substrate (25 μM, 20 μM, 15 μM, 10 μM, 7.5 μM, 5 μM). The reactions were run as a series of four with controls (no FpGalNAcDeacetylase) as duplicates. The fluorescence signal (365/435 nm) resulting from MU release by hydrolysis was monitored on a Synergy H1™ plate reader (BioTek™) and converted to concentration using MU standard concentration curves determined under identical reaction conditions. Initial rates (μM/s) were determined and plotted in Grafit™ 7.0 to determine the kcat/KM (s^−1*mM^−1) parameters.
(§2) Based on structural information (not shown) and sequence alignment (not shown) FpGalNAcDeAc_D1min and FpGalNase_truncA were mutated using the QuickChange™ protocol (Zhang 2004), utilizing the primers noted in TABLE B. The mutants were purified via NiNTA and HIC columns as described above. The structural integrity of all mutants was checked via CD spectroscopy; all tested enzymes were structurally similar to their wild-type. […]

Assay [2] relates to Flavonifractor plautii GalNAcDeacetylase FpGalNAcDeAc_D1min, mutant C99S. In words: Cleavage of A antigen Type2tetra-MU by FpGalNAcDeAc_D1min C99S. The note with it: pH 7.4, 37° C. The protocol: as §1, §2
In assay [3] the test system is Flavonifractor plautii GalNAcDeacetylase FpGalNAcDeAc_D1min, mutant D100N. The experiment in a line: Cleavage of A antigen Type2tetra-MU by FpGalNAcDeAc_D1min D100N. As to conditions: substrate depletion method for low-activity mutants. The protocol:
kcat/KM parameter were determined for A antigen subtype 1/2/4tetra-MU at pH 7.4 at 37° C. […] The reactions were run as a series of four with controls (no FpGalNAcDeacetylase) as duplicates. The fluorescence signal (365/435 nm) resulting from MU release by hydrolysis was monitored on a Synergy H1™ plate reader (BioTek™) and converted to concentration using MU standard concentration curves determined under identical reaction conditions. […]
Based on structural information (not shown) and sequence alignment (not shown) FpGalNAcDeAc_D1min and FpGalNase_truncA were mutated using the QuickChange™ protocol (Zhang 2004), utilizing the primers noted in TABLE B. The mutants were purified via NiNTA and HIC columns as described above. The structural integrity of all mutants was checked via CD spectroscopy; all tested enzymes were structurally similar to their wild-type. For mutants with relatively low activity, reactions were carried out under the same conditions used for full kinetic determinations; however the substrate depletion method was used for determination of kcat/KM values as has been previously described (Vocadlo 2002). In brief: at low concentrations of substrate where [Substrate]<KM (equivalent to ˜⅕- 1/10 of Km) the kcat/KM value can be approximated upon non-linear fitting of the reaction time course to a first order curve and dividing by the enzyme concentration.

For assay [4], the system named is Flavonifractor plautii GalNAcDeacetylase FpGalNAcDeAc_D1min, mutant H252A. The experiment in a line: Cleavage of A antigen Type2tetra-MU by FpGalNAcDeAc_D1min H252A. As to conditions: substrate depletion method for low-activity mutants. The protocol: as §1, §2
Assay [5] has as its system Flavonifractor plautii GalNAcDeacetylase FpGalNAcDeAc_D1min, mutant H252F. The experiment in a line: Cleavage of A antigen Type2tetra-MU by FpGalNAcDeAc_D1min H252F. The note with it: substrate depletion method for low-activity mutants. The protocol:
as §1, with “Initial rates (μM/s) were determined and plotted in Grafit™ 7.0 to determine the kcat/KM (s^−1*mM^−1) parameters.” left out
as §2

The subject of assay [6] is Flavonifractor plautii GalNAcDeacetylase FpGalNAcDeAc_D1min, mutant Y315F. In words: Cleavage of A antigen Type2tetra-MU by FpGalNAcDeAc_D1min Y315F. The note with it: substrate depletion method for low-activity mutants. The protocol:
as §1, §2

The term kcat/Km denotes the second-order rate constant that governs catalysis at low substrate concentration. Consider `CC(=O)N[C@H]1[C@H](Oc2ccc3c(C)cc(=O)oc3c2)O[C@H](CO)[C@@H](O[C@@H]2O[C@H](CO)[C@H](O)[C@H](O[C@H]3O[C@H](CO)[C@H](O)[C@H](O)[C@H]3NC(C)=O)[C@H]2O[C@@H]2O[C@@H](C)[C@@H](O)[C@@H](O)[C@@H]2O)[C@@H]1O` [A antigen Type2tetra-MU], for which the kcat/Km in assay [1] amounted to 2344.67 ± 96.63 M⁻¹ s⁻¹; in assay [2] it was 1259.9 ± 41.52 M⁻¹ s⁻¹; in assay [3] it was 1.22 ± 0.083 M⁻¹ s⁻¹; in assay [4], 1.4 ± 0.2 M⁻¹ s⁻¹; in assay [5], 0.5 ± 0.033 M⁻¹ s⁻¹; in assay [6], 2.78 ± 0.65 M⁻¹ s⁻¹.
